From PubChem BioAssay (NCI) come the findings set out here.

Each structure is given as a SMILES string.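 Step 1: Grow cells in 96-well plates. Step 2: Expose to compound for 48 hours at 5 concentrations. Step 3: Interpolate endpoints linearly; if unreached, use highest concentration. Here, GI50 denotes the concentration required for 50% inhibition of growth. TGI: concentration producing complete growth inhibition.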

Holding throughout (test): NCI tumour cell line growth inhibition, 48 h
In experiment [1] the test system is A549 NSCLC.
For experiment [2], the system named is CCRF-CEM leukemia.
Experiment [3] has as its system SW-620 colon.
In experiment [4] the test system is SK-OV-3 ovarian.
Experiment [5] has as its system RXF 393 renal.
Experiment [6] has as its system MOLT-4 leukemia.
Experiment [7] relates to HOP-92 NSCLC.
Experiment [8] has as its system HOP-62 NSCLC.
Experiment [9] deals with PC-3 prostate.
In experiment [10] the test system is DU-145 prostate.

Consider `O=C(NC(=O)c1cc2cc(Br)cc(Br)c2oc1=O)Oc1ccccc1`, for which the TGI was above 100 µM in [1]; above 100 µM in experiment [2]; above 100 µM in experiment [3]; above 100 µM in [4]; 83.3 µM in experiment [5]; above 100 µM in experiment [6]. The TGI in [7] and in experiment [8] was above 100 µM each time.

For `CC(C)(C)N=CN(C=C(c1ccccc1)c1ccccc1)C1CCCCC1`, the TGI in experiment [1] was above 100 µM; in [2] it was above 100 µM; in [3], above 100 µM; in [5] it was 79.2 µM; in experiment [7], 82.4 µM; in experiment [8], above 100 µM.

In the case of `COc1cc2ccc(CC(N)=O)cc2cc1OC`, the TGI in [1], in [2], in experiment [3], in experiment [4], in experiment [5] and in experiment [6] was above 100 µM each time. Moreover, the TGI in experiment [7] and in experiment [8] was above 100 µM each time.

As for `C/C=C1\CCC2c3[nH]c4ccccc4c3CCN2C1` (centres undefined), the TGI in experiment [1], in [2], in experiment [3], in experiment [4], in experiment [5] and in experiment [6] was above 100 µM each time. Also, the TGI in experiment [7] is 99.7 µM; in experiment [8], above 100 µM.

For `O=C1c2c(c3c4ccccc4[nH]c3c3[nH]c4ccccc4c23)C(=O)N1Cc1ccccc1`, the TGI in experiment [1] came out at 13.5 µM; in experiment [2] it was 13.3 µM; in [3] it was 10.9 µM; in experiment [4], 9.49 µM; in experiment [5], 4.12 µM; in experiment [6] it was 7.51 µM. Besides, the TGI was 5.65 µM in experiment [7] and 14.8 µM in experiment [8].

Consider `COc1cc2c(cc1OC)[C@@H]([C@H](O)c1ccccc1)NCC2`, for which the TGI in experiment [1], in experiment [2], in [3], in experiment [4], in experiment [5] and in experiment [6] was above 100 µM in each case. Also, the TGI in experiment [7] and in [8] was above 100 µM throughout.

As for `Clc1ccc(C2=NOC3C4CCC(C4)C23)cc1` (centres undefined), the TGI in experiment [1], in experiment [2], in experiment [3], in [4], in experiment [6] and in [7] was above 100 µM each time. Besides, the TGI in experiment [8] was above 100 µM.

Regarding `O=C1CCC2(c3ccccc3)Nc3ccc(Cl)cc3N12` (centres undefined), the TGI in experiment [1], in experiment [2], in experiment [3], in [4], in experiment [5] and in experiment [6] was above 100 µM in each case. For the same compound, the TGI in experiment [7] and in [8] was above 100 µM in each case.

As for `COc1ccc(C#CC2=C(c3cc(OC)c(OC)c(OC)c3)C(=O)OC2)cc1`, the GI50 in experiment [1] was 14.3 µM; in [2], 1.03 µM; in experiment [9], 2.95 µM; in [5], 6.77 µM; in [6], 1.1 µM. Further, the TGI in experiment [1] is 38.8 µM; in experiment [2], above 50 µM; in experiment [9], above 50 µM; in experiment [5] it was 26.7 µM; in experiment [6], above 50 µM.

Turning to `CCCCN1CCN(c2ccc3nc(-c4ccc5nc(-c6ccc(OCC)c(OCC)c6)[nH]c5c4)[nH]c3c2)CC1`, the GI50 was 0.538 µM in [2]; 1.08 µM in experiment [9]; 0.474 µM in [3]; 1.33 µM in [4]; 1 µM in experiment [10]; 1.22 µM in experiment [6]. Moreover, the GI50 in [7] was 1.23 µM. For the same compound, the TGI in experiment [2] was 3.06 µM; in experiment [9], 2.44 µM; in experiment [3], 1.79 µM; in [4], 3.27 µM; in [10], 2.21 µM; in experiment [6] it was 3.86 µM. In addition, the TGI in experiment [7] came to 3.17 µM.

With `Cc1cn2c(/C=N/N=C(N)N)c(-c3ccsc3)nc2s1`, the GI50 in experiment [1] is 17.1 µM; in experiment [2] it was 2.54 µM; in experiment [9], 7.5 µM; in [3], 5.67 µM; in experiment [4], 10.6 µM; in [5], 17.3 µM. The GI50 in experiment [6] was above 100 µM. The TGI in [1] amounted to 34.7 µM; in experiment [2], 6.21 µM; in experiment [9] it was 20.1 µM; in [3] it was 23.3 µM; in experiment [4], 25.6 µM; in experiment [5], 33.5 µM. Also, the TGI in [6] is above 100 µM.

As for `O=C(Sc1sc(=S)sc1SC(=O)c1ccccc1)c1ccccc1`, the TGI in experiment [1] is 70.6 µM; in experiment [2], above 100 µM; in [3], above 100 µM; in [4], 41.4 µM; in experiment [5], above 100 µM; in [6], above 100 µM. Also, the TGI was above 100 µM in [7] and 72.4 µM in experiment [8].

`O=C(COc1ccc(-c2nc3cc(Cl)c(Cl)cc3[nH]2)cc1)N=Nc1c(O)[nH]c2ccccc12`: the GI50 was 0.749 µM in experiment [2]; 2.28 µM in experiment [4]; 2.71 µM in experiment [5]; 1.51 µM in [10]; 3.57 µM in experiment [6]; 1.59 µM in [7]. For the same compound, the TGI is above 100 µM in experiment [2]; 9.88 µM in experiment [4]; 9.77 µM in experiment [5]; above 100 µM in [10]; above 100 µM in experiment [6]; 5.22 µM in [7]. The same compound returned a TGI in [8] above 40.8 µM.

On to `Cc1cc2c(=O)cc(-c3ccc(F)cc3)oc2c(C(=O)O)c1C`, for which the TGI in experiment [1], in experiment [2], in experiment [3], in experiment [4], in experiment [5] and in experiment [6] was above 100 µM throughout.

As to `Cc1ccc2c(CC(=O)O)cc(=O)oc2c1`, the TGI in [1], in experiment [2], in experiment [3], in experiment [4], in experiment [5] and in experiment [6] was above 100 µM each time. In addition, the TGI in [7] and in experiment [8] was above 100 µM in each case.
